# Laboratory results as given in ChEMBL document CHEMBL4152269, “New N-phenylpyrrolamide DNA gyrase B inhibitors: Optimization of efficacy and antibacterial activity” (Eur J Med Chem, 2018).
# How the values were obtained:
# Enterococcus faecalis [1] = assay: Growth inhibition of Enterococcus faecalis ATCC 29212 at 50 uM after 24 hrs by broth microdilution method relative to control; format: functional; conditions: ATCC 29212, 24 h, read-out: GI
# Escherichia coli [2] = assay: Growth inhibition of Escherichia coli ATCC 25922 at 50 uM after 24 hrs by broth microdilution method relative to control; format: functional; conditions: ATCC 25922, 24 h, read-out: GI
# Escherichia coli [3] = assay: Growth inhibition of tolC deficient Escherichia coli JW5503 at 50 uM after 24 hrs by broth microdilution method relative to control; format: functional; conditions: JW5503, 24 h, read-out: GI
# DNA gyrase subunit B [4] = biological target: DNA gyrase subunit B (Escherichia coli, UniProt P0AES6); assay: Inhibition of Escherichia coli DNA gyrase by supercoiling assay
# Pseudomonas aeruginosa = assay: Growth inhibition of Pseudomonas aeruginosa ATCC 27853 at 50 uM after 24 hrs by broth microdilution method relative to control; format: functional; conditions: ATCC 27853, 24 h, read-out: GI
# Escherichia coli [5] = assay: Growth inhibition of lpxC deficient Escherichia coli JD17464 at 50 uM after 24 hrs by broth microdilution method relative to control; format: functional; conditions: JD17464, 24 h, read-out: GI
# Staphylococcus aureus [6] = assay: Growth inhibition of Staphylococcus aureus ATCC 25923 at 50 uM after 24 hrs by broth microdilution method relative to control; format: functional; conditions: ATCC 25923, 24 h, read-out: GI
# Enterococcus faecalis [7] = assay: Antibacterial activity against Enterococcus faecalis ATCC 29212 after 18 hrs by broth microdilution method; format: functional; conditions: ATCC 29212, 18 h
# Escherichia coli [8] = assay: Antibacterial activity against tolC deficient Escherichia coli JW5503 after 18 hrs by broth microdilution method; format: functional; conditions: JW5503, 18 h
# DNA gyrase subunit B [9] = biological target: DNA gyrase subunit B (Staphylococcus aureus, UniProt P0A0K8); assay: Inhibition of Staphylococcus aureus DNA gyrase B preincubated for 10 mins followed by ATP addition measured after 30 mins by purine nucleoside phosphorylase enzyme coupled spectrophotometric method
# Sequence of DNA gyrase subunit B (Staphylococcus aureus, UniProt P0A0K8) (P0A0K8 whole entry): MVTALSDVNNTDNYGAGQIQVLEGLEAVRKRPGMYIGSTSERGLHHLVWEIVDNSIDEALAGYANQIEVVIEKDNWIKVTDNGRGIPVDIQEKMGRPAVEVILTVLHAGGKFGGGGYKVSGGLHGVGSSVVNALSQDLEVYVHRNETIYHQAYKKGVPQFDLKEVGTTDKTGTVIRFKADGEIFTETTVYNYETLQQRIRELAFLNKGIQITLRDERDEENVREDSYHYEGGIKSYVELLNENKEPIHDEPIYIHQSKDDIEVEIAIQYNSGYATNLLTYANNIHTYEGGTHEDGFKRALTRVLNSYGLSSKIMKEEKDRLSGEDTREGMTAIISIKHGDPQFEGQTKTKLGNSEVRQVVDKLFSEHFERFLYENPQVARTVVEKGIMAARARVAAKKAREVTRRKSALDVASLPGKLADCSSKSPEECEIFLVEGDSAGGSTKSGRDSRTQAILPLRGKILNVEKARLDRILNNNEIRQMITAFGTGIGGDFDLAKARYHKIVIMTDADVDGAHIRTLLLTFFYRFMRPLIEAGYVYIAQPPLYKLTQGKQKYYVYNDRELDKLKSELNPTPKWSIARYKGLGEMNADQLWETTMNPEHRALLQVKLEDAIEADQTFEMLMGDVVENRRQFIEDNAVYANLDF
# Staphylococcus aureus [10] = assay: (§1) Inhibition of Staphylococcus aureus topoisomerase-4 assessed as residual activity at 1 uM preincubated for 10 mins followed by ATP addition measured after 30 mins by purine nucleoside phosphorylase enzyme coupled spectrophotometric method relative to control
# [11] = biological target: DNA gyrase subunit B (Staphylococcus aureus) (UniProt P0A0K8); assay: Inhibition of Staphylococcus aureus DNA gyrase B assessed as residual activity at 1 uM preincubated for 10 mins followed by ATP addition measured after 30 mins by purine nucleoside phosphorylase enzyme coupled spectrophotometric method relative to control
# Sequence of DNA gyrase subunit B (Staphylococcus aureus) (P0A0K8 2-644 limits assumed): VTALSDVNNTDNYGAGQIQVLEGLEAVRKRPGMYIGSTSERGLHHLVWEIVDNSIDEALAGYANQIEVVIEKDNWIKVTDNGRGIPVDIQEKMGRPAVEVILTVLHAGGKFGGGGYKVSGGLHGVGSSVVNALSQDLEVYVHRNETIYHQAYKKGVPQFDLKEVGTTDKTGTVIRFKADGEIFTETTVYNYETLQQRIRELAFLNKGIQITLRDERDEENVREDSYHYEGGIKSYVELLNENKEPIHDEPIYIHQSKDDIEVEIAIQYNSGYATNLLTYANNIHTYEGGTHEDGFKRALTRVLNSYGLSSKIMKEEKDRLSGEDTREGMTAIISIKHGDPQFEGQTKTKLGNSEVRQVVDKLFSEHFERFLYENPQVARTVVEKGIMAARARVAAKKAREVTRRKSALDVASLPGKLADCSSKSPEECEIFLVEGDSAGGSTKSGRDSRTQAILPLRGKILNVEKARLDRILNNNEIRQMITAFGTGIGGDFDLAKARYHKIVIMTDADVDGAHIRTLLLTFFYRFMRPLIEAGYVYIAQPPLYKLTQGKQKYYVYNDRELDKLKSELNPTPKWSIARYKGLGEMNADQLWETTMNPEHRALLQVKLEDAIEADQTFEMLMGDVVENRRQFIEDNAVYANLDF
# [12] = Inhibition of Staphylococcus aureus topoisomerase-4 assessed as residual activity preincubated for 10 mins followed by ATP addition measured after 30 mins by purine nucleoside phosphorylase enzyme coupled spectrophotometric method
# [13] = Inhibition of Escherichia coli C-terminal His6-tagged topoisomerase-4 expressed in Escherichia coli BL21(DE3) preincubated for 10 mins followed by ATP addition measured after 30 mins by purine nucleoside phosphorylase enzyme coupled spectrophotometric method
# Escherichia coli [14] = assay: as §1, with “Escherichia coli C-terminal His6-tagged” for “Staphylococcus aureus”, “topoisomerase-4 expressed in Escherichia coli BL21(DE3)” for “topoisomerase-4”
Structure (SMILES),inhibition of growth at 50 µM (Enterococcus faecalis [1]),inhibition of growth at 50 µM (Escherichia coli [2]),inhibition of growth at 50 µM (Escherichia coli [3]),IC50 (DNA gyrase subunit B [4]),inhibition of growth at 50 µM (Pseudomonas aeruginosa),inhibition of growth at 50 µM (Escherichia coli [5]),inhibition of growth at 50 µM (Staphylococcus aureus [6]),MIC90 (Enterococcus faecalis [7]),MIC90 (Escherichia coli [8]),IC50 (DNA gyrase subunit B [9]),Activity (Staphylococcus aureus [10]),Activity [11],IC50 [12],IC50 [13],Activity (Escherichia coli [14])
Cc1[nH]c(C(=O)Nc2ccc(C(=O)N[C@@H](C)c3n[nH]c(=O)o3)cc2OCCNC(=O)OC(C)(C)C)c(Cl)c1Cl,86%,-1%,-5%,1.6 µM,31%,2%,3%,100 µM,,,,,,,
COC(=O)[C@H](Cc1ccccc1)NC(=O)c1ccc(NC(=O)c2cc(Br)c(Br)[nH]2)c(OCCN)c1,102%,9%,103%,,28%,23%,103%,50 µM,25 µM,,,,,,
Cc1[nH]c(C(=O)Nc2ccc(C(=O)N[C@@H](C)C(=O)O)cc2OCCNC(=O)OC(C)(C)C)c(Cl)c1Cl,-1%,5%,11%,0.59 µM,5%,14%,-11%,,,1.3 µM,99%,,,,
COC(=O)[C@@H](NC(=O)c1ccc(NC(=O)c2cc(Br)c(Br)[nH]2)c(OC(C)C)c1)C(C)C,59%,13%,-9%,,6%,22%,33%,,,,,,,,
NCCOc1cc(C(=O)NCC(=O)O)ccc1NC(=O)c1cc(Br)c(Br)[nH]1,0%,0%,-8%,,11%,-5%,-2%,,,,,,,,
COC(=O)CNC(=O)c1ccc(NC(=O)c2[nH]c(C)c(Cl)c2Cl)cc1OC(C)C,44%,6%,,,-5%,,-5%,,,,,,,,
CC(C)Oc1cc(NC(=O)c2cc(Br)c(Br)[nH]2)ccc1C(=O)NCC(=O)O,14%,9%,,0.4 µM,-8%,,13%,,,,96%,85%,,,
Cc1[nH]c(C(=O)Nc2ccc(C(=O)N[C@@H](C)C(=O)O)cc2OCCN)c(Cl)c1Cl,36%,4%,-4%,0.028 µM,10%,5%,17%,,,0.11 µM,,,3.2 µM,0.53 µM,
Cc1[nH]c(C(=O)Nc2ccc(C(=O)N[C@@H](C)C(=O)NN)cc2OC(C)C)c(Cl)c1Cl,99%,7%,7%,0.28 µM,9%,3%,5%,6.25 µM,,22 µM,92%,,,,
O=C(O)CNC(=O)c1ccc(NC(=O)c2cc(Br)c(Br)[nH]2)cc1OCc1ccccc1,2%,10%,,0.088 µM,-2%,,19%,,,,,79%,39 µM,,100%
Cc1[nH]c(C(=O)Nc2ccc(C(=O)N[C@@H](C)C(=O)NN)cc2OCCNC(=O)OC(C)(C)C)c(Cl)c1Cl,64%,5%,13%,,12%,19%,7%,,,,,,,,
CN(C)CCOc1cc(NC(=O)c2cc(Br)c(Br)[nH]2)ccc1C(=O)NCC(=O)O,14%,7%,,,4%,,28%,,,,,,,,
Cc1[nH]c(C(=O)Nc2ccc(C(=O)N[C@@H](C)C(=O)O)cc2OC(C)C)c(Cl)c1Cl,100%,0%,97%,0.038 µM,8%,-10%,-21%,3.13 µM,50 µM,0.093 µM,,,0.28 µM,0.45 µM,
COC(=O)[C@@H](C)NC(=O)c1ccc(NC(=O)c2[nH]c(C)c(Cl)c2Cl)c(OC(C)C)c1,-41%,12%,11%,,5%,27%,29%,,,,,,,,
Cc1[nH]c(C(=O)Nc2ccc(C(=O)N[C@@H](Cc3ccccc3)C(=O)O)cc2OC(C)C)c(Cl)c1Cl,99%,-2%,8%,,4%,1%,-57%,3.13 µM,,,,,,,
Cc1[nH]c(C(=O)Nc2ccc(C(=O)NCC(=O)O)c(OC(C)C)c2)c(Cl)c1Cl,75%,12%,,0.091 µM,11%,,-9%,,,0.14 µM,,,12 µM,,
Cc1[nH]c(C(=O)Nc2ccc(C(=O)N[C@@H](C)c3n[nH]c(=O)o3)cc2OCCN)c(Cl)c1Cl,-6%,1%,88%,0.013 µM,16%,13%,0%,,50 µM,1 µM,,,0.96 µM,0.57 µM,
CC(C)Oc1cc(C(=O)N[C@H](C(=O)O)C(C)C)ccc1NC(=O)c1cc(Br)c(Br)[nH]1,80%,-2%,18%,,11%,-1%,-13%,> 75 µM,,,,,,,
COC(=O)[C@H](C)NC(=O)c1ccc(NC(=O)c2cc(Br)c(Br)[nH]2)c(OC(C)C)c1,65%,5%,97%,,9%,11%,42%,,25 µM,,,,,,
Cc1[nH]c(C(=O)Nc2ccc(C(=O)N[C@H](C)C(=O)O)cc2OC(C)C)c(Cl)c1Cl,101%,4%,52%,0.041 µM,-1%,5%,59%,6.25 µM,,1.6 µM,,,1.3 µM,7.4 µM,
CC(C)Oc1cc(C(=O)N[C@@H](C)C(=O)O)ccc1NC(=O)c1cc(Br)c(Br)[nH]1,70%,0%,6%,0.37 µM,10%,-15%,-18%,,,5.9 µM,98%,,,,78%
CC(C)(C)OC(=O)NCCOc1cc(C(=O)NCC(=O)O)ccc1NC(=O)c1cc(Br)c(Br)[nH]1,1%,2%,5%,,9%,-2%,7%,,,,,,,,
COC(=O)[C@H](Cc1ccccc1)NC(=O)c1ccc(NC(=O)c2[nH]c(C)c(Cl)c2Cl)c(OC(C)C)c1,74%,13%,-5%,,6%,25%,-3%,,,,,,,,
COC(=O)[C@H](C)NC(=O)c1ccc(NC(=O)c2[nH]c(C)c(Cl)c2Cl)c(OC(C)C)c1,57%,0%,-12%,,8%,6%,-45%,,,,,,,,
